Experimental data from publication PMC11576293, “New series of 4,6-diaryl pyrimidines: facile synthesis and antiproliferative activity as dual EGFR/VEGFR-2 inhibitors” (Frontiers in Chemistry, 2024).
Several values for one entry are separate records, joined by “and”; a condition that tells them apart may be missing. Identical values can stand only once.

What was measured:
Assay type in all cases: cell-based, human
[1] = tested on: Bax; assay: Bax activation assay; details: for Bax Conc: A-549 cancer cells
Procedure: 4.2.7. Bax activation assay
Bring all reagents, except the human Bax-α Standard, to room temperature for at least 30 minutes prior to opening. The human Bax-α Standard solution should not be left at room temperature for more than 10 minutes. All standards, controls and samples should be run in duplicate. Refer to the Assay Layout Sheet to determine the number of wells to be used and put any remaining wells with the desiccant back into the pouch and seal the ziploc. Store unused wells at 4 °C. Pipet 100 μL of Assay Buffer into the S0 (0 pg/mL standard) wells. Pipet 100 μL of Standards #1 through #6 into the appropriate wells. Pipet 100 μL of the Samples into the appropriate wells. Tap the plate gently to mix the contents. Seal the plate and incubate at room temperature on a plate shaker for 1 hour at ~500 rpm. Empty the contents of the wells and wash by adding 400 μL of wash solution to every well. Repeat the wash 4 more times for a total of 5 washes. After the final wash, empty or aspirate the wells and firmly tap the plate on a lint free paper towel to remove any remaining wash buffer.
Pipet 100 μL of yellow Antibody into each well, except the Blank. Seal the plate and incubate at room temperature on a plate shaker for 1 hour at ~500 rpm. Empty the contents of the wells and wash by adding 400 μL of wash solution to every well. Repeat the wash 4 more times for a total of 5 washes. After the final wash, empty or aspirate the wells and firmly tap the plate on a lint free paper towel to remove any remaining wash buffer. Add 100 μL of blue Conjugate to each well, except the Blank. Seal the plate and incubate at room temperature on a plate shaker for 30 minutes […]
Pipet 100 μL of Substrate Solution into each well. Incubate for 30 minutes at room temperature on a plate shaker at ~500 rpm. Pipet 100 μL Stop Solution to each well. Blank the plate reader against the Blank wells, read the optical density at 450 nm. Calculate the average net Optical Density (OD) bound for each standard and sample by subtracting the average Blank OD from the average OD for each standard and sample. Using linear graph paper, plot the Average Net OD for each standard versus Bax concentration in each standard. Approximate a straight line through the points.
The concentration of Bax in the unknowns can be determined by interpolation. […]

[2] = tested on: Bcl-2; assay: Bcl-2 inhibition assay; details: A-549 cell line
Procedure: 4.2.8. Bcl-2 inhibition assay
Mix all reagents thoroughly without foaming before use. Wash the microwells twice with approximately 300 μL Wash Buffer per well with thorough aspiration of microwell contents between washes. Take caution not to scratch the surface of the microwells. After the last wash, empty the wells and tap microwell strips on absorbent pad or paper towel to remove excess Wash Buffer. Use the microwell strips immediately after washing or place upside down on a wet absorbent paper for not longer than 15 minutes. […] Add 100 μL of Sample […]
Diluent in duplicate to all standard wells and to the blank wells. Prepare standard (1:2 dilution) in duplicate ranging from 32 ng/mL to 0.5 ng/mL. Add 100 μL of Sample Diluent, in duplicate, to the blank wells. Add 80 μL of Sample Diluent, in duplicate, to the sample wells. Add 20 μL of each Sample, in duplicate, to the designated wells. Add 50 μL of diluted biotin-conjugate to all wells, including the blank wells. Cover with a plate cover and incubate at room temperature, on a microplate shaker at 100 rpm if available, for 2 hours. Remove plate cover and empty the wells.
Wash microwell strips 3 times as described in step 2. Add 100 μL of diluted Streptavidin-HRP to all wells, including the blank wells. Cover with a plate cover and incubate at room temperature, on a microplate shaker at 100 rpm if available, for 1 hour. Remove plate cover and empty the wells.
Wash microwell strips 3 times as described in step 2. Proceed to the next step. Pipette 100 μl of mixed TMB Substrate Solution to all wells, including the blanks. Incubate the microwell strips at room temperature (18° to 25°C) for about 15 minutes, if available on a rotator set at 100 rpm.
Avoid direct exposure to intense light. The point, at which the substrate reaction is stopped, is often determined by the ELISA reader. Many ELISA readers record absorbance only up to 2.0
O.D. Therefore, the color development within individual microwells must be watched by the person running the assay and the substrate reaction stopped before positive wells are no longer properly detectable. Stop the enzyme reaction by quickly pipetting 100 μL of Stop Solution into each well, including the blank wells. It is important that the Stop Solution is spread quickly and uniformly throughout the microwells to completely inactivate the enzyme. Results must be read immediately after the Stop Solution is added or within one hour i f the microwell strips are stored at 2 - 8°C in the dark. Read absorbance of each microwell on a spectrophotometer using 450 nm as the primary wavelength.

[3] = tested on: A-549 cancer cells; assay: Wound healing assay (migration, wound closure); details: A-549 cells
Procedure: Wound healing assay is a simple, reproducible, and non-expensive method to study cancer cell migration in vitro ([Rodriguez et al., 2005]). We investigated the wound-healing activities of compounds 22 and 29 in A-549 cancer cells. […] Furthermore, the wound closure percentage achieved 100% after 72 h of treatment with a compound 22, whereas it reached only 80% with a compound 29.

Structure (SMILES)	Bax Conc [1]	Bcl-2 Conc [2] [ng/mL]	Wound closure % 24 h [3] [%]	Wound closure % 48 h [3] [%]	Wound closure % 72 h [3] [%]	Bax Fold change ([1]; compared to untreated A-549 cancer cells) [fold]	Bcl-2 Fold reduction ([2]; versus control) [fold]
COc1ccc(CSc2nc(-c3ccc(OC)cc3)cc(-c3cccc(OC)c3)n2)cc1 [Compound 22, 2-(4-Methoxybenzylthio)-6-(3-methoxyphenyl)-4-(4-methoxyphenyl)pyrimidine]	294 pg/mL and 294 ± 6 pg/mL	0.90	25	50	100	–	–
COc1ccc(CSc2nc(-c3ccc(Cl)cc3)cc(-c3ccc(OC)c(OC)c3)n2)cc1 [Compound 29, 2-(4-Methoxybenzylthio)-4-(4-chlorophenyl)-6-(3,4-dimethoxyphenyl)pyrimidine]	278 pg/mL and 278 ± 5 pg/mL	1.15	11	34	80	35	5
